# Reference: patent publication US20220002283A1 (Mylan Laboratories Limited, priority 2019, published 2022)
# Assays:
# [1] = cited from earlier work
# [2] = Solid state stability, PXRD; type: physicochemical; set-up: key: X: crystalline; S: stable
# [3] = Solid state stability, HPLC meloxicam co-crystal assay; type: physicochemical; details: for A %: Co-former Assay % / M %: Meloxicam Assay %: samples as per Examples 1, 2, 3
# [4] = Solid state stability, impurities by HPLC; type: physicochemical
# [5] = Solid state stability, physical and chemical (PXRD and HPLC), overall finding; details: 40° C./75% RH and 25° C./60% RH, three months
# [6] = 25° C./60% RH, 1 mo., samples as per Example 7 or 17
# [7] = 25° C./60% RH, 2 mo., samples as per Example 7 or 17
# [8] = 25° C./60% RH, 3 mo., samples as per Example 7 or 17
# [9] = 25° C./60% RH, Initial, samples as per Example 7 or 17
# [10] = 40° C./75% RH, 1 mo., samples as per Example 7, 17 or 14
# [11] = 40° C./75% RH, 2 mo., samples as per Example 7, 17 or 14
# [12] = 40° C./75% RH, 3 mo., samples as per Example 7 or 17
# [13] = 40° C./75% RH, Initial, samples as per Example 7, 17 or 14
structure (smiles),measurement,setting,value
O=C(O)CCC(=O)O [Succinic acid],pKa,physchem,-0.01
O=C(O)CCc1ccccc1 [Hydrocinnamic acid],pKa (co-former),[1],4.66
same,pKa,physchem,-0.46
O=C(O)c1ccc2ccccc2c1O [1-Hydroxy-2-naphthoic acid],pKa,physchem,1.5
Cc1cnc(NC(=O)C2=C(O)c3ccccc3S(=O)(=O)N2C)s1.O=C(O)c1ccc2ccccc2c1O,PXRD,[2]; [6],S
same,PXRD,"[2]; 25° C./60% RH, 1 mo., samples as per Examples 1, 2, 3",S
same,PXRD,[2]; [7],S
same,PXRD,"[2]; 25° C./60% RH, 2 mo., samples as per Examples 1, 2, 3",S
same,PXRD,[2]; [8],S
same,PXRD,"[2]; 25° C./60% RH, 3 mo., samples as per Examples 1, 2, 3",S
same,PXRD,[2]; [9],X
same,PXRD,"[2]; 25° C./60% RH, Initial, samples as per Examples 1, 2, 3",X
same,PXRD,[2]; [10],S
same,PXRD,"[2]; 40° C./75% RH, 1 mo., samples as per Examples 1, 2, 3",S
same,PXRD,[2]; [11],S
same,PXRD,"[2]; 40° C./75% RH, 2 mo., samples as per Examples 1, 2, 3",S
same,PXRD,[2]; [12],S
same,PXRD,"[2]; 40° C./75% RH, 3 mo., samples as per Examples 1, 2, 3",S
same,PXRD,[2]; [13],X
same,PXRD,"[2]; 40° C./75% RH, Initial, samples as per Examples 1, 2, 3",X
same,Assay (% by HPLC) M % (Meloxicam Assay %),[3]; [6],65.0%
same,A %: Co-former Assay %,"[3]; 25° C./60% RH, 1 mo.",34.5%
same,M %: Meloxicam Assay %,"[3]; 25° C./60% RH, 1 mo.",64.7%
same,Assay (% by HPLC) M % (Meloxicam Assay %),[3]; [7],63.5%
same,A %: Co-former Assay %,"[3]; 25° C./60% RH, 2 mo.",35.0%
same,M %: Meloxicam Assay %,"[3]; 25° C./60% RH, 2 mo.",65.0%
same,Assay (% by HPLC) M % (Meloxicam Assay %),[3]; [8],64.3%
same,A %: Co-former Assay %,"[3]; 25° C./60% RH, 3 mo.",34.0%
same,M %: Meloxicam Assay %,"[3]; 25° C./60% RH, 3 mo.",64.6%
same,Assay (% by HPLC) M % (Meloxicam Assay %),[3]; [9],65.1%
same,A %: Co-former Assay %,"[3]; 25° C./60% RH, Initial",34.2%
same,M %: Meloxicam Assay %,"[3]; 25° C./60% RH, Initial",64.3%
same,Assay (% by HPLC) M % (Meloxicam Assay %),[3]; [10],64.7%
same,A %: Co-former Assay %,"[3]; 40° C./75% RH, 1 mo.",34.9%
same,M %: Meloxicam Assay %,"[3]; 40° C./75% RH, 1 mo.",64.9%
same,Assay (% by HPLC) M % (Meloxicam Assay %),[3]; [11],64.0%
same,M %: Meloxicam Assay %,"[3]; 40° C./75% RH, 2 mo.",64.8%
same,Assay (% by HPLC) M % (Meloxicam Assay %),[3]; [12],64.4%
same,A %: Co-former Assay %,"[3]; 40° C./75% RH, 3 mo.",34.2%
same,M %: Meloxicam Assay %,"[3]; 40° C./75% RH, 3 mo.",65.5%
same,Assay (% by HPLC) M % (Meloxicam Assay %),[3]; [13],65.2%
same,A %: Co-former Assay %,"[3]; 40° C./75% RH, Initial",34.2%
same,M %: Meloxicam Assay %,"[3]; 40° C./75% RH, Initial",64.3%
same,"Impurities (% w/w, by HPLC) Methyl Meloxicam",[4]; [6],0.01 % w/w
same,"Impurities (% w/w, by HPLC) Other* (any other individual impurity)",[4]; [6],0.03 % w/w
same,"Impurities (% w/w, by HPLC) Total",[4]; [6],0.08 % w/w
same,"Impurities (% w/w, by HPLC) Methyl Meloxicam",[4]; [7],0.01 % w/w
same,"Impurities (% w/w, by HPLC) Other* (any other individual impurity)",[4]; [7],0.03 % w/w
same,"Impurities (% w/w, by HPLC) Total",[4]; [7],0.13 % w/w
same,"Impurities (% w/w, by HPLC) Methyl Meloxicam",[4]; [8],0.01 % w/w
same,"Impurities (% w/w, by HPLC) Other* (any other individual impurity)",[4]; [8],0.03 % w/w
same,"Impurities (% w/w, by HPLC) Total",[4]; [8],0.08 % w/w
same,"Impurities (% w/w, by HPLC) Methyl Meloxicam",[4]; [9],0.01 % w/w
same,"Impurities (% w/w, by HPLC) Other* (any other individual impurity)",[4]; [9],0.02 % w/w
same,"Impurities (% w/w, by HPLC) Total",[4]; [9],0.05 % w/w
same,"Impurities (% w/w, by HPLC) Methyl Meloxicam",[4]; [10],0.01 % w/w
same,"Impurities (% w/w, by HPLC) Other* (any other individual impurity)",[4]; [10],0.03 % w/w
same,"Impurities (% w/w, by HPLC) Total",[4]; [10],0.09 % w/w
same,"Impurities (% w/w, by HPLC) Methyl Meloxicam",[4]; [11],0.01 % w/w
same,"Impurities (% w/w, by HPLC) Other* (any other individual impurity)",[4]; [11],0.03 % w/w
same,"Impurities (% w/w, by HPLC) Total",[4]; [11],0.13 % w/w
same,"Impurities (% w/w, by HPLC) Methyl Meloxicam",[4]; [12],0.01 % w/w
same,"Impurities (% w/w, by HPLC) Other* (any other individual impurity)",[4]; [12],0.03 % w/w
same,"Impurities (% w/w, by HPLC) Total",[4]; [12],0.10 % w/w
same,"Impurities (% w/w, by HPLC) Methyl Meloxicam",[4]; [13],0.01 % w/w
same,"Impurities (% w/w, by HPLC) Other* (any other individual impurity)",[4]; [13],0.03 % w/w
same,"Impurities (% w/w, by HPLC) Total",[4]; [13],0.06 % w/w
same,"Meloxicam Related Compounds A, B, C, and D by HPLC","[4]; any timepoint from initiation up to 3 months, 40° C./75% RH and 25° C./60% RH","^#Meloxicam Related Compounds A, B, C, and D (see Table 4) were not detectable at any timepoint from initiation up to 3 months."
same,physical and chemical stability,[5],physically and chemically stable
